{
  "source": "patent US20240279232A1",
  "about": "“USE OF SUBSTITUTED 5-(4-METHYL-6-PHENYL-4H-BENZO[F]IMIDAZO[1,5-A][1,4] DIAZEPIN-3-YL)-1,2,4-O[…] THE TREATMENT OF INFLAMMATORY CONDITIONS” (priority 2021, published 2024)",
  "key": {"5-HT7": {"target": "5-HT7 (Homo sapiens, UniProt P34969)", "assay": "PDSP primary binding 5-HT7", "settings": "PDSP primary screening", "experimental": "(§1) Because reduction of NO could not be reversed by GABAAR antagonists, the possible binding of MP-IV-010 to other cellular receptors was evaluated in collaboration with the NIMH Psychoactive Drug Screening Program.\n(§2) Psychoactive Drug Screening Program. Detailed protocols for the primary and secondary radioligand binding assays can be found in the National Institute of Mental Health's Psychoactive Drug Screening Program (NIMH PDSP) Assay Protocol Book. Briefly, primary and secondary radioligand binding assays are carried out in a final of volume of 125 μL per well in appropriate binding buffer. The radioactive ligand concentration is close to the Kd. Total binding and nonspecific binding are determined in the absence and presence of 10 μM of appropriate reference compound, respectively. In brief, plates are usually incubated at room temperature and in the dark for 90 min. Reactions are stopped by vacuum filtration onto 0.3% polyethyleneimine (PEI) soaked 96-well filter mats using a 96-well Filtermate harvester, followed by three washes with cold PBS buffer. Scintillation cocktail is then melted onto the microwave-dried filters on a hot plate and radioactivity counted in a Microbeta counter. The data (n=6) were analyzed by nonlinear regression."}, "Calcium Channel": {"test_system": "Calcium Channel", "assay": "PDSP primary binding Calcium Channel", "settings": "PDSP primary screening", "experimental": "as §1, §2"}, "M1": {"target": "M1 (Homo sapiens, UniProt P11229)", "assay": "PDSP primary binding M1", "settings": "PDSP primary screening", "experimental": "as §1, §2"}, "H4": {"target": "H4 (Homo sapiens, UniProt Q9H3N8)", "assay": "PDSP primary binding H4", "settings": "PDSP primary screening", "experimental": "as §1, §2"}, "D4": {"target": "D4 (Homo sapiens, UniProt P21917)", "assay": "PDSP primary binding D4", "settings": "PDSP primary screening", "experimental": "as §1, §2"}, "M2": {"target": "M2 (Homo sapiens, UniProt P08172)", "assay": "PDSP primary binding M2", "settings": "PDSP primary screening", "experimental": "as §1, §2"}, "D2": {"target": "D2 (Homo sapiens, UniProt P14416)", "assay": "PDSP primary binding D2", "settings": "PDSP primary screening", "experimental": "as §1, §2"}, "DAT": {"target": "DAT (Homo sapiens, UniProt Q01959)", "assay": "PDSP primary binding DAT", "settings": "PDSP primary screening", "experimental": "as §1, §2"}, "5-HT1D": {"target": "5-HT1D (Homo sapiens, UniProt P28221)", "assay": "PDSP primary binding 5-HT1D", "settings": "PDSP primary screening", "experimental": "as §1, §2"}, "iNOS": {"target": "T1, iNOS (Mus musculus, UniProt P29477)", "T1 construct": "endogenous in cells", "assay": "iNOS activity of extracts of activated microglia incubated with compound", "format": "biochemical", "settings": "50 μM, extracts incubated 2 h", "experimental": "Cellular proteins were isolated from mouse microglia and mouse microglia activated for 24 hours with IFNγ/LPS. Cellular proteins from activated microglia were treated for 2 hours with 50 μM MP-IV-010 and iNOS activity was determined for all protein extracts with an Abcam INOS Activity Assay kit (n=3).\nNext, the possible involvement of INOS in MP-IV-010 (and structurally similar compound GL-IV-03) mediated reduction of NO in activated microglia was investigated. INOS activity was measured in activated microglia after a 24-hour treatment with MP-IV-010. Second, proteins were harvested from microglia activated for 24 hours with LPS/INFγ, followed by a 2-hour treatment with MP-IV-010 before measuring iNOS activity. Finally, mRNA and protein levels were quantified for GL-IV-03 treated activated microglia to examine the transcriptional regulation of iNOS.\niNOS activity assay. Mouse microglia were activated with 50 ng/mL LPS (Invivogen, NC9836) and 150 U/mL IFNγ (R&D Systems, 485MI100), and treated with compounds of interest in 6 well plates for 2 or 24 hours. […] Protein was collected, quantified, and analyzed with the Nitric Oxide Synthase Activity kit (Abcam, ab211083) with minor alterations to the established protocol. […] Absorbance at 540 nm was measured using a TECAN Infinite M1000 plate reader. Significance (n=3) was analyzed by ANOVA."}, "PBR": {"target": "PBR (Rattus norvegicus, UniProt P16257)", "assay": "PDSP primary binding PBR", "settings": "PDSP primary screening", "experimental": "as §1, §2"}, "Alpha1B": {"target": "Alpha1B (Homo sapiens, UniProt P35368)", "assay": "PDSP primary binding Alpha1B", "settings": "PDSP primary screening", "experimental": "as §1, §2"}, "Beta3": {"target": "Beta3 (Homo sapiens, UniProt P13945)", "assay": "PDSP primary binding Beta3", "settings": "PDSP primary screening", "experimental": "as §1, §2"}, "Alpha1A": {"target": "Alpha1A (Homo sapiens, UniProt P35348)", "assay": "PDSP primary binding Alpha1A", "settings": "PDSP primary screening", "experimental": "as §1, §2"}, "5-HT1A": {"target": "5-HT1A (Homo sapiens, UniProt P08908)", "assay": "PDSP primary binding 5-HT1A", "settings": "PDSP primary screening", "experimental": "as §1, §2"}},
  "data": [
    {"smiles": "C#Cc1ccc2c(c1)C(c1ccccc1F)=N[C@H](C)c1c(-c3nc(C(C)C)no3)ncn1-2", "note": "[MP-IV-010, (R)-5-(8-ethynyl-6-(2-fluorophenyl)-4-methyl-4H-benzo[f]imidazo[1,5-a][1,4]diazepin-3-yl)-3-isopropyl-1,2,4-oxadiazole]", "values": [
      {"measurement": "Percent Competition 5-HT7", "setting": "5-HT7", "value": "−5", "unit": "%"},
      {"measurement": "Percent Competition Calcium Channel", "setting": "Calcium Channel", "value": 15, "unit": "%"},
      {"measurement": "Percent Competition M1", "setting": "M1", "value": "−11", "unit": "%"},
      {"measurement": "Percent Competition H4", "setting": "H4", "value": 6, "unit": "%"},
      {"measurement": "Percent Competition D4", "setting": "D4", "value": 5, "unit": "%"},
      {"measurement": "Percent Competition M2", "setting": "M2", "value": 10, "unit": "%"},
      {"measurement": "Percent Competition D2", "setting": "D2", "value": 25, "unit": "%"},
      {"measurement": "Percent Competition DAT", "setting": "DAT", "value": 14, "unit": "%"},
      {"measurement": "Percent Competition 5-HT1D", "setting": "5-HT1D", "value": 6, "unit": "%"},
      {"measurement": "iNOS activity of cellular extracts (direct inhibition)", "setting": "iNOS", "value": "did not differ from the vehicle treated cell extract"},
      {"measurement": "Percent Competition PBR", "setting": "PBR", "value": 28, "unit": "%"},
      {"measurement": "Percent Competition Alpha1B", "setting": "Alpha1B", "value": 15, "unit": "%"},
      {"measurement": "Percent Competition Beta3", "setting": "Beta3", "value": 38, "unit": "%"},
      {"measurement": "Percent Competition Alpha1A", "setting": "Alpha1A", "value": 2, "unit": "%"},
      {"measurement": "Percent Competition 5-HT1A", "setting": "5-HT1A", "value": 19, "unit": "%"}
    ]}
  ]
}
